Results: ChEMBL document CHEMBL3608211, “Exploration of Pharmacophore in Chrysosplenol C as Activator in Ventricular Myocyte Contraction” (ACS Med Chem Lett, 2015)
Values after ≈ are worked out from the molar mass of the structure shown. Active and inactive are the calls of the source. No cut-off for these calls is given here.

Legend:
[1] = Positive inotropic effect in Sprague-Dawley rat ventricular myocytes assessed as change in ventricular cell contractility at 10 uM by video edge detector relative to control; type: functional, Ventricular myocyte
[2] = Positive inotropic effect in Sprague-Dawley rat ventricular myocytes assessed as change in ventricular cell contractility at 50 uM by video edge detector relative to control; type: functional, Ventricular myocyte
[3] = Positive inotropic effect in Sprague-Dawley rat ventricular myocytes assessed as change in ventricular cell contractility at 400 nM by video edge detector relative to control; type: functional, Ventricular myocyte
[4] = Positive inotropic effect in Sprague-Dawley rat ventricular myocytes assessed as change in ventricular cell contractility at 1 uM by video edge detector relative to control; type: functional, Ventricular myocyte
Bos taurus = organism: Bos taurus; test: Activation of cardiac myosin S1 ATPase in bovine sarcomere at 10 uM by spectrophometric analysis in presence of actin thin filament complex relative to control
Oryctolagus cuniculus = organism: Oryctolagus cuniculus; test: Activation of skeletal myosin S1 ATPase in rabbit psoas muscle at 10 uM in presence of actin thin filament complex; type: tissue-based
Gallus gallus = organism: Gallus gallus; test: Activation of smooth myosin S1 ATPase in chicken gizzard at 10 uM in presence of actin thin filament complex
[5] = Solubility of the compound in DMSO/tyrode solution; type: physicochemical

SMILES | Activity [1] [%] | Activity [2] [%] | Activity [3] [%] | Activity [4] [%] | Activity (Bos taurus) [%] | Activity (Oryctolagus cuniculus) | Activity (Gallus gallus) | solubility [5] [µg/mL]
COc1cc(-c2oc3ccc(O)cc3c(=O)c2O)ccc1O | 0 | 0 |  |  |  |  |  | 
COC(=O)N1CCN(Cc2cccc(NC(=O)Nc3ccc(C)nc3)c2F)CC1 [OMECAMTIV MECARBIL] |  |  | 59.3 | 33.8 | 80.4 |  |  | 
COc1cc(/C=C/C(=O)c2ccc(Cl)cc2O)ccc1O | 0 | 0 |  |  |  |  |  | 
COc1ccc2c(=O)c(OC)c(-c3ccc(Cl)cc3)oc2c1 | 0 | 0 |  |  |  |  |  | 
COc1cc(-c2oc3cccc(O)c3c(=O)c2O)ccc1O | 0 | 0 |  |  |  |  |  | 
COc1cc(-c2cc(=O)c3ccc(Cl)cc3o2)ccc1O | 0 | 0 |  |  |  |  |  | 
COc1cc(-c2oc3cccc(O)c3c(=O)c2OC)ccc1O | 4.2 | 12.3 |  |  | 0 |  |  | 
COc1cc(-c2oc3ccc(O)cc3c(=O)c2OC)ccc1O | 3.9 | 9.3 |  |  |  |  |  | 
COc1cccc(-c2oc3cc(Cl)ccc3c(=O)c2OC)c1 | 16.6 | 23.6 |  |  |  |  |  | 
O=c1c(O)c(-c2ccc(O)cc2)oc2cc(Cl)ccc12 | 0 | 11 |  |  |  |  |  | 
COc1cc(-c2oc3cc(Cl)ccc3c(=O)c2OC)ccc1O | 43.9 | 41.8 |  |  | 36.4 | inactive | inactive | 
COc1cc(-c2oc3ccccc3c(=O)c2O)ccc1O | 10.5 | 10.3 |  |  |  |  |  | 
COc1cc(-c2oc3cc(OC)c(O)c(O)c3c(=O)c2OC)ccc1O [CHRYSOSPLENOL C] | 16.6 | 53 |  |  | 28.1 | inactive | inactive | 14.1 (≈ 39.1 µM)
COc1ccc2c(=O)c(OC)c(-c3ccc(O)cc3)oc2c1 | 42.1 | 38.6 |  |  | 30.9 | inactive | inactive | 
COc1c(-c2ccc(Cl)cc2)oc2cc(Cl)ccc2c1=O | 0 | 0 |  |  |  |  |  | 
COc1ccc(-c2oc3cc(OC)c(OC)c(O)c3c(=O)c2OC)cc1OC [ARTEMETIN] | 8.7 | 21.6 |  |  |  |  |  | 
COc1ccc2c(=O)c(O)c(-c3ccc(O)cc3)oc2c1 | 8.87 | 23.1 |  |  |  |  |  | 
COc1cccc(-c2oc3cc(Cl)ccc3c(=O)c2O)c1 | 0 | 0 |  |  |  |  |  | 
COc1ccc2c(=O)c(OC)c(-c3ccc(O)c(OC)c3)oc2c1 | 60.7 | 45.3 |  |  | 33.7 | inactive | inactive | 17.1 (≈ 52 µM)
COc1ccc2c(=O)c(O)c(-c3ccc(O)c(OC)c3)oc2c1 | 8.17 | 3.98 |  |  | 0 |  |  | 
COc1c(-c2ccc(O)cc2)oc2cc(Cl)ccc2c1=O | 49.6 | 62.1 |  |  | 28.9 | inactive | inactive | 
COc1cc(-c2oc3cc(Cl)ccc3c(=O)c2O)ccc1O | 23.5 | 57.3 |  |  |  |  |  | 
COc1c(-c2cccc(O)c2)oc2cc(Cl)ccc2c1=O | 54.8 | 53.9 |  |  | 38.7 | inactive | inactive | 
COc1cc(-c2oc3ccccc3c(=O)c2OC)ccc1O | 30.5 | 44.9 |  |  |  |  |  | 
